# ChEMBL document CHEMBL3507680, “University of Dundee, Gates Library screen for HepG2 cell viability”
# Test: Human HepG2 cell viability assay in 384 well format
# Format: toxicity, cell-based
# Set-up: dose 125 nL, time 70.5 hour; cytotoxicity at 70.5 h: concentration not given beside the values
# Conditions: HepG2 cells, read-out: Inhibition
row,SMILES,cytotoxicity at 70.5 h [%]
1,COc1ccc(-n2ccc(C(=O)N3CCN(C)CC3C)n2)cc1 (configuration not stated),-5.83
2,CC(C)NC(=O)C1CCc2nnc(CNC(=O)c3cccnc3)n21 (configuration not stated),-2
3,O=C(NCCC1COc2ccccc2O1)c1ccc(-c2cn[nH]c2)nc1 (configuration not stated),4.75
4,COc1ccc(C(O)CNC(=O)NCc2nc(C)cs2)cc1 (configuration not stated),-3.39
5,CCOc1ccccc1C1CCCN1 (configuration not stated),1.15
6,Cn1ccc2cc(CC3COCCN(C(=O)c4ccccn4)C3)ccc21 (configuration not stated),-6.94
7,CC(C)N1CCOC[C@H]1c1nc(-c2ccncc2)c[nH]1,-1.74
8,CS(=O)(=O)N1CCOCC2(CCN(C(=O)c3cccnc3)CC2)C1,-7.84
9,COc1ccc(C2OC(COc3ccc(C)cc3)=NN2C(C)=O)cc1 (configuration not stated),0.8
10,Cc1ccc(N2CCO[C@H]3CN(CC4CC4)C[C@H]32)nn1,-13.4
11,COCCN(C)CCN1CC2(CCN(C(=O)C3CCOC3)CC2)OC1=O (configuration not stated),17.4
12,COCc1cc(N(C)Cc2cc(C(C)(C)C)n[nH]2)ncn1,-7.91
13,COc1ccccc1-c1csc(-c2cccc(C(=O)O)c2)n1,-4.2
14,O=C([C@H]1CCCO1)N1CCC2(CCCN(CCOc3ccccc3)C2)C1 (some centres not stated),20.8
15,Cc1ccc(N2Cc3nc(=O)n(C(C)C)n3C2=O)cc1,-28.9
16,COCCc1ncc(CN2C[C@@H](C(=O)O)[C@H](C(C)C)C2)cn1,14.1
17,Cc1ccccc1-n1ncc2c(=O)n(CCN3CCCC3)cnc21,26.8
18,Cc1cc(C)nc(N2CCN(C(=O)c3ccc(C4CCCO4)s3)CC2)n1 (configuration not stated),-11.5
19,CN1CC(Oc2ccccc2)=NC(SCC(=O)Nc2ccc(Cl)cc2)=N1,0.871
20,O=C(O)c1ccc(S(=O)(=O)Nc2ccccc2F)c(F)c1,-11
21,Cc1cn[nH]c1C1COCCN1Cc1ccsc1 (configuration not stated),-0.803

row,SMILES,cytotoxicity at 70.5 h [%]
1,CCN1CCN(C2CCN(Cc3noc(C4CC4)n3)CC2)C1=O,-3.61
2,Nc1nc(C2CCN(C(=O)c3cnccn3)CC2)cs1,15.4
3,Cc1n[nH]c(C)c1CN1CCC(c2cc(C(C)C)n[nH]2)CC1,1.2
4,CNS(=O)(=O)c1ccc(CNC(=O)NCC2CCC2)cc1,-8.5
5,N#Cc1cccnc1NCCNC(=O)N1CCCC(N2CCCC2)C1 (configuration not stated),10.7
6,Cc1cc(C)n(CC2CCCCN2C(=O)c2cnn(C)c2)n1 (configuration not stated),8.99
7,Cn1ccnc1CN1CCCN(C(=O)CC(C2CC2)C2CC2)CC1,0.914
8,CN1CCOCC2(CCCN(C(=O)c3ccccc3F)C2)C1 (configuration not stated),13.4
9,CCN(C)Cc1cccc(CNC(=O)NCCc2ccccn2)c1,-3.19
10,Cc1cc(N2C[C@H](NC(=O)C3(C#N)CCOCC3)[C@@H](C(C)C)C2)ccn1,-10.5
11,COc1ccccc1CC(C)(C)NC(=O)CNS(C)(=O)=O,-2.04
12,O=C(C1=CC2(CCNCC2)c2ccccc21)N1CCCC1,-14.7
13,CCC(=O)NC1CCCN(C(=O)Nc2cccc(COC(C)C)c2)C1 (configuration not stated),7.06
14,CCOCCC(=O)N1CCCC(c2ncc[nH]2)C1 (configuration not stated),-0.67
15,CN(CCc1ccccn1)C(=O)CCC1CCCN(c2cnccn2)C1 (configuration not stated),2.36
16,Cc1nc2cc(=O)[nH]n2c(C)c1CNC(=O)c1cnn(C(C)(C)C)c1,4.01
17,CN(C)[C@@H]1CCN(c2ncccn2)[C@H]1Cc1ccncc1,-5.48
18,COCC1(CNC(=O)[C@@]23CNC[C@@H]2CN(C2CCCC2)C3)CC1,-3.2
19,CC(C)c1noc(CCC(=O)NCC(c2ccco2)N2CCCC2)n1 (configuration not stated),-7.17
20,Cc1ccc(C(=O)N2CCCC(C(=O)N3CCCCC3)C2)c(O)c1 (configuration not stated),13.3
21,CC(Cn1cccn1)NC(=O)CCc1ccc(S(N)(=O)=O)cc1 (configuration not stated),-15.1

row,SMILES,cytotoxicity at 70.5 h [%]
1,COc1cc(NC2CCCN(c3ncccn3)C2)cc(OC)c1 (configuration not stated),3.49
2,COC(=O)c1cccc(C2CNCCN2C)c1 (configuration not stated),12
3,CCN(CC)C(=O)N1CCN(C2=NCC(C)S2)CC1 (configuration not stated),-9.33
4,C1CCC(NC2CCCN(Cc3noc(C4CC4)n3)C2)C1 (configuration not stated),-15.1
5,O=c1c(S(=O)(=O)N2CCCCC2)cccn1Cc1cccnc1,-9.28
6,O=C(C1CC(c2ccccc2)=NO1)N1CCc2ccccc21 (configuration not stated),28.5
7,Cc1nc[nH]c1C(=O)N1CCCC2(C1)C(=O)N(C)c1ccccc12 (configuration not stated),-3.87
8,COc1cccc(CN(C)Cc2ccccc2C#N)c1OC,-1.91
9,CCOc1ccc(Cl)c(C(=O)N2CCCSCC2)n1,-10.6
10,O=C(CCc1ccsc1)NCc1ccnc(OC2CCOCC2)c1,-5.9
11,O=C1CN(C(=O)C2CCCCC2)CC(O)CN1Cc1ccc(Cl)cc1 (configuration not stated),-5.09
12,CCn1nc(C)c2nc(C(C)C)nc(NCC(C)C)c21,-8.62
13,O=C(c1ccn(COc2ccc(F)cc2)n1)N1CCCC1,-7.86
14,COc1ccccc1C1Cn2c(C)cnc2CN1Cc1c[nH]nc1C (configuration not stated),-12.2
15,Cc1nc(C2CCCN(C(=O)c3ccc(N4CCCC4)nn3)C2)no1 (configuration not stated),0.493
16,Clc1ccc(CN2CCCC(Cn3cncn3)C2)c2ncccc12 (configuration not stated),-8.25
17,CCNC(=O)NC(C)(C)C(=O)NCCc1csc2ccccc12,2.01
18,COCCn1ccc2cc(NC(=O)N(C)C(C)CSC)ccc21 (configuration not stated),1.74
19,Cc1cccnc1CN1CCN(Cc2ccc(-c3cc[nH]n3)o2)CC1,-7.65
20,COc1ccc([C@@H]2C[C@H](NC(C)=O)C[C@H](Cc3ccccc3)O2)cn1,-6.79
21,Cc1nc(-c2ccco2)ccc1C(=O)N1CCCC1Cn1cccn1 (configuration not stated),7.82

row,SMILES,cytotoxicity at 70.5 h [%]
1,COc1cccc2c1OCC(CNc1cc(N)nc(SC)n1)C2 (configuration not stated),-8.3
2,CC(C)CCn1cc(C(C(=O)O)N2CCC(N3CCSCC3)CC2)cn1 (configuration not stated),3.77
3,CC(Cc1c(F)cccc1F)NC(=O)NCc1ncnn1C (configuration not stated),-2.54
4,CCN1CCc2[nH]cnc2C12CCN(c1ccc(Cl)c(C(=O)O)n1)CC2,-2.9
5,Cc1cc(Cl)ccc1NCc1ccc(C(=O)N(C)C)[nH]1,-4.01
6,O=C(CC1CCCC1)NCCn1nc2ccccn2c1=O,-2.13
7,CCCc1nnc(N2CC[C@](C)(O)[C@H](C)C2)s1,8.74
8,CCOc1ncccc1NC(=O)c1cc2c(s1)CCC2,1.84
9,CNC(=O)c1cccc(NCCOc2ccc(CC#N)cc2)c1C,-1.82
10,Cc1cc(C)c2nc(CNC3CCNC3=O)cc(O)c2c1 (configuration not stated),-3.2
11,CSc1cc2c(cc1NC(=O)N(C)Cc1ccncc1)OCCO2,-2.5
12,c1ccc2cc(OCCCN3CCn4c(nnc4C4CC4)C3)ccc2c1,-6.02
13,COCCNC(=O)Nc1cc2c(cc1SC)OCCO2,-4.52
14,Cn1c(=O)[nH]c(=O)n2c(CC(=O)Nc3c(Cl)cccc3Cl)cnc12,-14.2
15,Cn1ccc(CN2CCC(CC(=O)N3CCCC3)CC2)cc1=O,-6.85
16,Cn1cc(CN2CC(C(=O)Nc3ccccc3)C3(CCOCC3)C2)cn1 (configuration not stated),-9.91
17,CCS(=O)(=O)CCn1ccc(NC(=O)CCc2cccc(C)c2)n1,-2.75
18,Cc1cn2c(n1)CCC(NC(=O)c1cnc(C)nc1C(C)C)C2 (configuration not stated),-9
19,CCOc1ccccc1CC(=O)N1C[C@@H](C(=O)O)[C@H](c2ccncc2)C1,37.4
